From patent US10851402B2, “Method for in vitro detection and monitoring of a disease by measuring disease-associated protease activity in extracellular vesicles” (Friedrich-Alexander-Universitaet Erlangen-Nuernberg, priority 2013, dated 2020) come the findings set out here.

One assay concerns resting PBMC. The assay can be described thus: TNFα secretion of resting PBMC after incubation with EV. Type of assay: cell-based. The note with it: EV-producing cells incubated with the inhibitor; EV incubated with resting PBMC (6 hours). On the procedure: PBMC stimulation with EV and measurement of Cytokine Secretion. PBMC ([…]) were added to each well of a 96-well-U-bottom plate in a total volume of 200 μl (RPMI). 10 μl of exosome preparation from transfected cells (corresponding to 2×10^6 cells or one 10 cm dish) were added per well and […]. When indicated 10 μl PHA (positive control), 50 μM TAPI-1 (Peptides International), or 10 μM U0126 (MAPK-Inhibitor, Promega) were used. Cytokines in the supernatant (200 μl) were measured via the CBA (Cytometric Bead Array) Human Soluble Protein Flex Set System (BD Biosciences).
For confirmation we incubated EV with resting PBMC (6 hours) and measured TNFα release.

A further assay has as its target T1, TACE (Homo sapiens, UniProt P78536).
T1 construct: endogenous in cells; host or cells: 293T cells transfected with Nef/mNAKC (TACE itself not transfected)
Nature of the assay: GFP-proTNF-RFP cleavage and endogenous TACE activity in Nef/mNAKC transfected 293T cells. Type of assay: cell-based. The note with it: exposure of cultured 293T cells to TAPI. On the procedure:
Transfections into 293T cells and protein assays. Transient transfections into 293T cells as well as immunoprecipitations and immunoblots were performed as described previously (Baur et al., 1997; Witte et al., 2004; Wolf et al., 2008). In general 20 μg of cellular protein lysate and 10 μg of EV lysate were loaded per lane. The latter corresponded to the secretion from 2-4 mio 293T cells within 48 h. Endogenous TACE activity was measured using SensoLyte®520 TACE (α-Secretase) Activity Assay Kit from AnaSpec, according to the manufacturer's procedures. Cell lysates were generated from 293T cells 24 h after tranfection of Nef/mNAKC. […]
While TACE seemed to be activated by Nef/mNAKC, it was not clear whether and where the protease was functionally active. […] We constructed a GFP-proTNF-RFP fusion protein (G-proTNF-R; FIG. 5A), expecting that the full-length protein would give a yellow signal, which upon TACE-mediated cleavage would mature into prodomain-associated green (GFP) and TNFα-associated red (RFP) fluorescence. […]
In 293T cells the transfected G-proTNF-R construct gave a double positive (GFP/RFP) signal in FACS and a yellow staining in confocal images (FIGS. 5B and E). […] In addition, we measured an increased activity of endogenous TACE in Nef/mNAKC transfected 293T cells using a commercial, substrate-based activity assay (FIG. 20B). […]

T1 sequence (P78536 215-824): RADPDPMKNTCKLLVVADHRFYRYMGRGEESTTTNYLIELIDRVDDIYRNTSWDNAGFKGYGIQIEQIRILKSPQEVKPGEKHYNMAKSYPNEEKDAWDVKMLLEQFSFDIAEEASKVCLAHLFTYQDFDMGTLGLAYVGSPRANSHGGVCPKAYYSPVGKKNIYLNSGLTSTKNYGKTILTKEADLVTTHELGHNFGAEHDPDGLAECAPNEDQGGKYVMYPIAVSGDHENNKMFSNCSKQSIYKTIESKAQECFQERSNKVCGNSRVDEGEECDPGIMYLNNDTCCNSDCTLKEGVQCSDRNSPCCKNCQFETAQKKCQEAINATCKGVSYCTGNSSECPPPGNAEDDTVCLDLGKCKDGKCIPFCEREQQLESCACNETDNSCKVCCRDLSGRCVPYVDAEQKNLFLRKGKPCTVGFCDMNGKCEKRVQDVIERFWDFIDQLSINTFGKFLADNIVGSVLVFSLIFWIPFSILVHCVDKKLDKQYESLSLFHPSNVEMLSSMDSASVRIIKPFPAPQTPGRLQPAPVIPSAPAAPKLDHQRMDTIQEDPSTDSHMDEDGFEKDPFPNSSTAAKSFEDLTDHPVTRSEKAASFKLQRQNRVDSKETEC

Take `Oc1ccc2ccccc2c1SSc1c(O)ccc2ccccc12` [IPA-3]: the TNFα release result in the assay on resting PBMC is “significantly reduced”.
Regarding `CC(C)C[C@H](CC(=O)NO)C(=O)N[C@@H](Cc1ccc2ccccc2c1)C(=O)N[C@@H](C)C(=O)NCCN` [TAPI], the “effect of Nef/mNAKC and TACE on G-proTNF-R cleavage and endogenous TACE activity” value at TACE is given as “reversed”. Besides, the TNFα release entry in the assay with resting PBMC was “significantly reduced”.
As for `N#CC(=C(/N)Sc1ccccc1N)/C(C#N)=C(\N)Sc1ccccc1N` [U0126], the TNFα release result with resting PBMC is “significantly reduced”.
